Assay: Human HepG2 cell viability assay in 384 well format
Type: toxicity, cell-based
Set-up: dose 125 nL, time 70.5 hour; cytotoxicity at 70.5 h: concentration not given beside the values
Details: HepG2 cells, read-out: Inhibition

| SMILES | cytotoxicity at 70.5 h [%] |
| --- | --- |
| Cc1cc(C(=O)NCCN2CCCCCC2)nn1C(C)(C)C | -4.89 |
| COCC(=O)N1CCN(C(C)c2ncc(-c3ccccc3)o2)CC1 (stereo not given) | -13.2 |
| COc1ccccc1OC(C)CNC(=O)c1cnc[nH]1 (stereo not given) | -21.2 |
| CC(c1ncc(-c2ccccc2)o1)N1CCN(C(=O)C(C)(C)C)CC1 (stereo not given) | -25.9 |
| c1ccn2c(C3CCCN3Cc3nc(C4CC4)no3)nnc2c1 (stereo not given) | -21.8 |
| COc1c(C2CCCN2Cc2cn3ccsc3n2)c(C)nn1C (stereo not given) | -6.12 |
| CC(c1cc(F)ccc1F)N(C)CCS(=O)(=O)CCC(N)=O (stereo not given) | -8.99 |
| CC(C)N(CCNC(=O)c1n[nH]c2ccccc12)C(C)C | -7.32 |
| COc1ccc(C(C)N2CCC(C(=O)NC3CC3)CC2)cc1Cl (stereo not given) | -7.15 |
| CCC(=O)NC1CCCN(Cc2ccc(-n3ccnc3)cc2)C1 (stereo not given) | -4.83 |
| O=C(CCc1ccco1)Nc1cccc(S(=O)(=O)C(F)F)c1 | -9.11 |
| O=C(c1ccc2c(c1)[nH]c(=O)n2C1CCCC1)N1CCCSCC1 | -8.62 |
| COc1ccc(C(C)N2CCC(NS(C)(=O)=O)CC2)cc1Cl (stereo not given) | 10.5 |
| Cc1nn(C)c(C)c1C1CCCN1Cc1cn2ccsc2n1 (stereo not given) | -0.408 |
| COc1cccc(C(O)CN2CCN(C(=O)CCC(C)C)CC2)c1 (stereo not given) | 9.11 |
| CC(C)N(CCNC(=O)c1[nH]nc2ccc(I)cc12)C(C)C | -1.97 |
| Cc1cc(C)cc(NC(=O)N(CCC#N)CCCN(C)C)c1 | -5.53 |
| COc1cc(-c2noc(C(CC(C)C)N3CCCCC3=O)n2)ccn1 (stereo not given) | -2.9 |
| CC(C)(C#N)C(=O)Nc1nccn1Cc1ccc(Br)cc1 | 11.2 |
| COC1CCN(C(=O)c2nn(-c3ccc(C(C)C)cc3)cc2O)CC1 | 10.9 |
| Cc1nn(C)c(Cl)c1C1CCCN1Cc1cn2ccsc2n1 (stereo not given) | -1.16 |
| CC(=O)N1CCCCCC1C1CCN(Cc2nc(C3CC3)no2)CC1 (stereo not given) | 0.683 |
| OCC(O)CSCc1cn(-c2ccc(F)c(Cl)c2)nn1 (stereo not given) | -7.46 |
| OCC(O)CSCc1cn(-c2ccc(Cl)c(Cl)c2)nn1 (stereo not given) | -5.28 |
| Cc1ccc(-c2nc(CN(Cc3ccco3)C3CCS(=O)(=O)C3)cs2)o1 (stereo not given) | 15.2 |
| Cc1cc(NC(=O)Cn2ccccc2=O)n(C)n1 | -11.7 |
| O=C(NCc1ccc(Cl)s1)c1ccc(N2CCOC2=O)cc1 | -7.09 |

| SMILES | cytotoxicity at 70.5 h [%] |
| --- | --- |
| CC(NC(=O)CN1CCCC1=O)c1ccc(Cl)s1 (stereo not given) | -9.58 |
| CC(NC(=O)NCCCN1CCCC1=O)c1ccc(Cl)s1 (stereo not given) | -14.2 |
| N#Cc1ccc(N2CCCN(CC(=O)N3CCC3)CC2)cc1 | -2.99 |
| CCNC(=O)CN(CC)Cc1nc2c(F)cccc2n1CC | 21.7 |
| Cc1cnn(C2CCCN(C(=O)Cn3ccc(=O)n(C)c3=O)C2)c1 (stereo not given) | -1.04 |
| Cc1ccccc1C1(CNC(=O)c2cccc(S(C)(=O)=O)c2)CC1 | 20.2 |
| O=C(CCC(=O)c1ccccc1)NC1(C(=O)NCC2CC2)CCCC1 | -9.03 |
| O=C(Cc1cccs1)NC1(C(=O)NCC2CC2)CCCC1 | -7.33 |
| Cc1noc(-c2cccnc2N(C)Cc2cscn2)n1 | -5.46 |
| Cc1c(C2NC3(CCCC3)C(=O)N2CC2CC2)cc(C#N)n1C (stereo not given) | -8.72 |
| CC(=O)Nc1cccc(Cn2nc(C)nc2C)c1 | -6.2 |
| Cc1noc(-c2cccnc2N(C)Cc2ccc([S+](C)[O-])cc2)n1 (stereo not given) | -3.37 |
| c1ccc(CC2(CNCc3ncc[nH]3)CCC2)cc1 | -2.49 |
| CCN1C(=O)C2(CCCCC2)NC1c1cc(C#N)n(C)c1C (stereo not given) | -8.35 |
| N#Cc1ccc(CN(CC(N)=O)C2CCCC2)c(Br)c1 | -6.26 |
| Cc1csc(C2(NCc3nc(-c4ccco4)no3)CCCC2)n1 | -12.8 |
| Cc1ncsc1C(=O)N1CC(C)Sc2ccccc21 (stereo not given) | -8.57 |
| Cc1nc(CN2CCCC(Nc3ncnc4ccccc34)C2)no1 (stereo not given) | -5.36 |
| CN(Cc1ccc(Cl)s1)C(=O)CN(C)C1CCCc2ccccc21 (stereo not given) | -4.74 |
| O=C(Cc1cccc(F)c1)N1CCc2ncnc(NC3CCC3)c2CC1 | 2.52 |
| O=C(NCc1cccc(F)c1)N1CCc2ncnc(NC3CC3)c2CC1 | 1.62 |
| CO[C@H]1CO[C@@]2(CCCN(C(=O)N(C)C)C2)C1 | -3.18 |
| CCS(=O)(=O)N1CCC2(CC1)c1ncc(-c3cccnc3)n1CCN2C | -5.3 |
| CS(=O)(=O)N1CC[C@H]2OCC[C@@]2(C(=O)NCC2CC2)C1 | -7.08 |
| CC(C)n1c2ccccc2c2c1cc(C(=O)NCCO)n2C(=O)N(C)C | -4.08 |
| CC(=O)N1CCO[C@@H]2CN(C(=O)NCc3ccccc3)CC[C@@H]2C1 | 9.54 |
| CN1CCO[C@@H]2CN(C(=O)NCc3cccc(F)c3)CC[C@@H]2C1 | -3.54 |

| SMILES | cytotoxicity at 70.5 h [%] |
| --- | --- |
| CC(=O)N1CCc2nc(-c3ccccc3)nc(NC(C)C)c2CC1 | -13.5 |
| CN1CC[C@]2(CN(S(C)(=O)=O)C[C@H]2c2ccccc2)C1=O | 3.8 |
| CC(=O)N1CC[C@H]2OCC[C@@]2(C(=O)NCc2cnc(C)cn2)C1 | -5.25 |
| CC(=O)N1C[C@@H]2CN(S(=O)(=O)C3CC3)CCO[C@@H]2C1 | -1.33 |
| CCOC[C@@]12CCC[C@@H]1CN(C(=O)c1ccc(OC)cc1)C2 | 4.26 |
| CNC(=O)C1Cn2ccnc2C2(CCN(C(=O)NC3CCCC3)CC2)O1 (stereo not given) | -9.83 |
| CCn1ncc2c1C(COC)N(C(=O)Cc1cccs1)CC2 (stereo not given) | -0.61 |
| Cc1cnc(CNC(=O)[C@@]23CCO[C@@H]2CCN(c2ncccn2)C3)cn1 | -12.7 |
| CCOCC1CN(S(C)(=O)=O)Cc2nn(C)cc21 (stereo not given) | -3.61 |
| O=C(C1CC1)N1CCOC2(CCNCC2)C1 | -10.9 |
| CN(Cc1cccnc1)Cc1cncc2c1CCN(Cc1ccoc1)C2 | -7.08 |
| CN(Cc1cccnc1)Cc1cncc2c1CCN(c1ccccn1)C2 | 2.24 |
| COCCN1CCc2c(CNC(=O)c3nccn3C)cncc2C1 | 3.83 |
| CS(=O)(=O)N1CC[C@H]2OCC[C@@]2(C(=O)NCCc2ccccn2)C1 | -7.11 |
| CC(C)NC(=O)N1CCN(CCn2cccn2)c2ncccc2C1 | -2.7 |
| CCC(=O)N1CCN(CCn2cccn2)c2ncccc2C1 | 12.9 |
| O=C(c1ccncc1)N1CCC2(CCCN(c3ncc(F)cn3)C2)C1 (stereo not given) | -2.34 |
| NC(=O)C1Cn2ccnc2C2(CCN(C(=O)NC3CCCC3)CC2)O1 (stereo not given) | -8.91 |
| O=C(COC[C@@]12CCC[C@@H]1CN(C1CCC1)C2)N1CCCC1 | -9.27 |
| CC(C)Nc1nc(-c2ccccc2)nc2c1CCN(C(=O)C1CC1)CC2 | -9.57 |
| CN(C)C(=O)COC[C@]12COC[C@H]1CN(C1CCCC1)C2 | -8.08 |
| Cc1oncc1C(=O)N[C@@H]1CN(Cc2ccco2)C[C@@H]2CCCO[C@@H]21 | -3.33 |
| CC(C)CC(=O)N1CCC2(CC1)OC(C(N)=O)Cn1ccnc12 (stereo not given) | -8.87 |
| CN1CCC2(CC1)CC(NC(=O)c1csnn1)c1ccccc1O2 (stereo not given) | -0.343 |
| CC(C)N1[C@H](Cn2cncn2)C[C@@H]2CN(Cc3cccs3)CC[C@@H]21 | -0.112 |
| Cc1ccc(CN2CCC[C@]3(C(=O)O)CN(CC4CC4)C[C@@H]3C2)s1 | -6.54 |
